Reference: patent publication US20090018166A1, “New Pyridine Analogues X 161” (ASTRAZENECA AB, priority 2007, published 2009)

Target: T1, P2Y12 receptor (Homo sapiens, UniProt Q9H244)
T1 construct: expressed in transfected cells; host or cells: CHO cells (membranes)
Experiment: Functional inhibition of 2-Me-S-ADP induced P2Y12 signalling (35S-GTPγS binding, membranes from P2Y12 transfected CHO-cells)
Type: biochemical
Conditions: 35S-GTPγS, EC80 of 2-methyl-thio-adenosine diphosphate, P2Y12 CHO membranes; value given in each example; read-out: GTPγS(IC50 μM)
Description: Functional inhibition of- the P2Y12 receptor can be measured by in vitro assays using cell membranes from P2Y12 transfected CHO-cells, the methodology is indicated below.
Functional inhibition of 2-Me-S-ADP induced P2Y12 signalling: 5 μg of membranes were diluted in 200 μl of 200 mM NaCl, 1 mM MgCl2, 50 mM HEPES (pH 7.4), 0.01% BSA, 30 μg/ml saponin and 10 μM GDP. To this was added an EC80 concentration of agonist (2-methyl-thio-adenosine diphosphate), the required concentration of test compound and 0.1 μCi ^35S-GTPγS. The reaction was allowed to proceed at 30° C. for 45 min. Samples were then transferred on to GF/B filters using a cell harvester and washed with wash buffer (50 mM Tris (pH 7.4), 5 mM MgCl2, 50 mM NaCl). Filters were then covered with scintilant and counted for the amount of ^35S-GTPγS retained by the filter. Maximum activity was that determined in the presence of the agonist and minimum activity in the absence of the agonist following subtraction of the value determined for non-specific activity. The effect of compounds at various concentrations was plotted according to the equation
y=A+((B−A)/(1+((C/x)̂D)))
and IC50 estimated where A is the bottom plateau of the curve i.e. the final minimum y value B is the top of the plateau of the curve i.e. the final maximum y value C is the x value at the middle of the curve. This represents the log EC50 value when A+B=100 D is the slope factor. x is the original known x values. Y is the original known y values.

T1 sequence (Q9H244 whole entry): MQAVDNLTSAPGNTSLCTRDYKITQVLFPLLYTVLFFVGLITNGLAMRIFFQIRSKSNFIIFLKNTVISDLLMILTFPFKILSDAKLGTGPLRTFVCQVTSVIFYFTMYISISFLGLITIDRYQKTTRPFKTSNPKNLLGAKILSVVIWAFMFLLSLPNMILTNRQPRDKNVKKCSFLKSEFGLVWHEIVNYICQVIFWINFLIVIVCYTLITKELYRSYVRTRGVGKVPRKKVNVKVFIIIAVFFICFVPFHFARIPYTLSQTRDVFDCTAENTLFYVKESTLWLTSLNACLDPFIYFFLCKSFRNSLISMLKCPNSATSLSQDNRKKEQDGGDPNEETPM

Row | Compound | IC50 [µM]
1 | CCCC(=O)c1cc(C#N)c(N2CCC(C(=O)NS(=O)(=O)Cc3ccc(C)cc3)CC2)nc1CN1CCCC1=O [Example 5, 1-{5-butyryl-3-cyano-6-[(2-oxopyrrolidin-1-yl)methyl]pyridin-2-yl}-N-[(4-methylbenzyl)sulfonyl]piperidine-4-carboxamide] | 0.009
2 | CCCC(=O)c1cc(C#N)c(N2CCC(C(=O)NS(=O)(=O)Nc3ccccc3)CC2)nc1CN1CCCC1=O [Example 38, N-(Anilinosulfonyl)-1-{5-butyryl-3-cyano-6-[(2-oxopyrrolidin-1-yl)methyl]pyridin-2-yl}piperidine-4-carboxamide] | 0.033
3 | C=CCCC(=O)c1cc(Cl)c(N2CCC(C(=O)NS(=O)(=O)Cc3ccccc3)CC2)nc1CN1CCCC1=O [Example 51, N-(benzylsulfonyl)-1-{3-chloro-6-[(2-oxopyrrolidin-1-yl)methyl]-5-pent-4-enoylpyridin-2-yl}piperidine-4-carboxamide] | 0.069
4 | CCCC(=O)c1cc(C#N)c(N2CCC(C(=O)NS(=O)(=O)Cc3ccc(C)cc3)CC2)nc1CN1CCCCC1=O [Example 4, 1-{5-Butyryl-3-cyano-6-[(2-oxopiperidin-1-yl)methyl]pyridin-2-yl}-N-[(4-methylbenzyl)sulfonyl]piperidine-4-carboxamide] | 0.021
5 | N#Cc1cc(C(=O)C2CC2)c(CN2CCCC2=O)nc1N1CCC(C(=O)NS(=O)(=O)CC2CCC2)CC1 [Example 24, 1-{3-Cyano-5-(cyclopropylcarbonyl)-6-[(2-oxopyrrolidin-1-yl)methyl]pyridin-2-yl}-N-[(cyclobutylmethyl)sulfonyl]piperidine-4-carboxamide] | 0.428
6 | CCC(=O)c1cc(C#N)c(N2CCC(C(=O)NS(=O)(=O)CC3CCCC3)CC2)nc1CN1CCCC1=O [Example 12, 1-{3-Cyano-6-[(2-oxopyrrolidin-1-yl)methyl]-5-propionylpyridin-2-yl}-N-[(cyclopentylmethyl)sulfonyl]piperidine-4-carboxamide] | 0.328
7 | CCCCC(=O)c1cc(Cl)c(N2CCC(C(=O)NS(=O)(=O)N(C)c3ccc(F)cc3)CC2)nc1CN1CCCC1=O [Example 56, 1-{3-chloro-6-[(2-oxopyrrolidin-1-yl)methyl]-5-pentanoylpyridin-2-yl}-N-{[(4-fluorophenyl)(methyl)amino]sulfonyl}piperidine-4-carboxamide] | 0.247
8 | N#Cc1cc(C(=O)C2CC2)c(CN2CCCC2=O)nc1N1CCC(C(=O)NS(=O)(=O)CC2CCCC2)CC1 [Example 9, 1-{3-Cyano-5-(cyclopropylcarbonyl)-6-[(2-oxopyrrolidin-1-yl)methyl]pyridin-2-yl}-N-[(cyclopentylmethyl)sulfonyl]piperidine-4-carboxamide] | 0.058
9 | CN(c1ccccc1)S(=O)(=O)NC(=O)C1CCN(c2nc(CN3CCCCC3=O)c(C(=O)C3CC3)cc2C#N)CC1 [Example 13, 1-{3-Cyano-5-(cyclopropylcarbonyl)-6-[(2-oxopiperidin-1-yl)methyl]pyridin-2-yl}-N-{[methyl(phenyl)amino]sulfonyl}piperidine-4-carboxamide] | 0.153
10 | C=CCCC(=O)c1cc(C#N)c(N2CCC(C(=O)NS(=O)(=O)Cc3ccc(C)cc3)CC2)nc1CN1CCCC1=O [Example 40, 1-{3-cyano-6-[(2-oxopyrrolidin-1-yl)methyl]-5-pent-4-enoylpyridin-2-yl}-N-[(4-methylbenzyl)sulfonyl]piperidine-4-carboxamide] | 0.0081
11 | CCc1cnc(-c2cc(Cl)c(N3CCC(C(=O)NS(=O)(=O)Cc4ccccc4)CC3)nc2CN2CCCC2=O)o1 [Example 65, N-(benzylsulfonyl)-1-{3-chloro-5-(5-ethyl-1,3-oxazol-2-yl)-6-[(2-oxopyrrolidin-1-yl)methyl]pyridin-2-yl}piperidine-4-carboxamide] | 0.17
12 | CCCCC(=O)c1cc(Cl)c(N2CCC(C(=O)NS(=O)(=O)Cc3ccc(F)cc3F)CC2)nc1CN1CCCC1=O [Example 55, 1-{3-chloro-6-[(2-oxopyrrolidin-1-yl)methyl]-5-pentanoylpyridin-2-yl}-N-[(2,4-difluorobenzyl)sulfonyl]piperidine-4-carboxamide] | 0.226
13 | N#Cc1cc(C(=O)C2CC2)c(CN2CCCCC2=O)nc1N1CCC(C(=O)NS(=O)(=O)CC2CCCC2)CC1 [Example 14, 1-{3-Cyano-5-(cyclopropylcarbonyl)-6-[(2-oxopiperidin-1-yl)methyl]pyridin-2-yl}-N-[(cyclopentylmethyl)sulfonyl]piperidine-4-carboxamide] | 0.461
14 | CCc1cnc(-c2cc(Cl)c(N3CCC(C(=O)NS(=O)(=O)N(C)c4ccc(F)cc4)CC3)nc2CN2CCCC2=O)o1 [Example 64, 1-{3-chloro-5-(5-ethyl-1,3-oxazol-2-yl)-6-[(2-oxopyrrolidin-1-yl)methyl]pyridin-2-yl}-N-{[(4-fluorophenyl)(methyl)amino]sulfonyl}piperidine-4-carboxamide] | 0.45
15 | N#Cc1cc(C(=O)CCC(F)(F)F)c(CN2CCCC2=O)nc1N1CCC(C(=O)NS(=O)(=O)Cc2ccc(F)cc2F)CC1 [Example 42, 1-{3-Cyano-6-[(2-oxopyrrolidin-1-yl)methyl]-5-(4,4,4-trifluorobutanoyl)pyridin-2-yl}-N-[(2,4-difluorobenzyl)sulfonyl]piperidine-4-carboxamide] | 0.016
16 | CCCCC(=O)c1cc(C#N)c(N2CCC(C(=O)NS(=O)(=O)Cc3ccc(C)cc3)CC2)nc1CN1CCCC1=O [Example 19, 1-{3-Cyano-6-[(2-oxopyrrolidin-1-yl)methyl]-5-pentanoylpyridin-2-yl}-N-[(4-methylbenzyl)sulfonyl]piperidine-4-carboxamide] | 0.0086
17 | CCCCC(=O)c1cc(C#N)c(N2CCC(C(=O)NS(=O)(=O)CC3CCCCC3)CC2)nc1CN1CCCC1=O [Example 48, 1-{3-cyano-6-[(2-oxopyrrolidin-1-yl)methyl]-5-pentanoylpyridin-2-yl}-N-[(cyclohexylmethyl)sulfonyl]piperidine-4-carboxamide] | 0.023
18 | C=CCCC(=O)c1cc(C#N)c(N2CCC(C(=O)NS(=O)(=O)N(C)c3ccc(F)cc3)CC2)nc1CN1CCCC1=O [Example 28, 1-{3-cyano-6-[(2-oxopyrrolidin-1-yl)methyl]-5-pent-4-enoylpyridin-2-yl}-N-{[(4-fluorophenyl)(methyl)amino]sulfonyl}piperidine-4-carboxamide] | 0.022
19 | Cc1ccc(CS(=O)(=O)NC(=O)C2CCN(c3nc(CN4CCCC4=O)c(C(=O)CCC(F)(F)F)cc3C#N)CC2)cc1 [Example 43, 1-{3-cyano-6-[(2-oxopyrrolidin-1-yl)methyl]-5-(4,4,4-trifluorobutanoyl)pyridin-2-yl}-N-[(4-methylbenzyl)sulfonyl]piperidine-4-carboxamide] | 0.019
20 | CCCC(=O)c1cc(Cl)c(N2CCC(C(=O)NS(=O)(=O)Cc3ccc(C)cc3)CC2)nc1CN1CCCC1=O [Example 32, 1-{5-Butyryl-3-chloro-6-[(2-oxopyrrolidin-1-yl)methyl]pyridin-2-yl}-N-[(4-methylbenzyl)sulfonyl]piperidine-4-carboxamide] | 0.055
21 | CCCCC(=O)c1cc(Cl)c(N2CCC(C(=O)NS(=O)(=O)Cc3ccc(Cl)cc3)CC2)nc1CN1CCCC1=O [Example 59, N-[(4-chlorobenzyl)sulfonyl]-1-{3-chloro-6-[(2-oxopyrrolidin-1-yl)methyl]-5-pentanoylpyridin-2-yl}piperidine-4-carboxamide] | 0.132
22 | CN(c1ccccc1)S(=O)(=O)NC(=O)C1CCN(c2nc(CN3CCCC3=O)c(C(=O)C3CC3)cc2C#N)CC1 [Example 23, 1-{3-Cyano-5-(cyclopropylcarbonyl)-6-[(2-oxopyrrolidin-1-yl)methyl]pyridin-2-yl}-N-{[methyl(phenyl)amino]sulfonyl}piperidine-4-carboxamide] | 0.042
23 | CC(C)C(=O)c1cc(C#N)c(N2CCC(C(=O)NS(=O)(=O)Cc3ccccc3)CC2)nc1CN1CCCC1=O [Example 15, N-(Benzylsulfonyl)-1-{3-cyano-5-isobutyryl-6-[(2-oxopyrrolidin-1-yl)methyl]pyridin-2-yl}piperidine-4-carboxamide] | 0.106
24 | CN(c1ccc(F)cc1)S(=O)(=O)NC(=O)C1CCN(c2nc(CN3CCCC3=O)c(C(=O)C3CC3)cc2C#N)CC1 [Example 25, 1-{3-Cyano-5-(cyclopropylcarbonyl)-6-[(2-oxopyrrolidin-1-yl)methyl]pyridin-2-yl}-N-{[(4-fluorophenyl)(methyl)amino]sulfonyl}piperidine-4-carboxamide] | 0.026
25 | 1-{3-chloro-6-[(2-oxopyrrolidin-1-yl)methyl]-5-pentanoylpyridin-2-yl}-N-[(2,4-difluorobenzyl)sulfonyl]-N-methylpiperidine-4-carboxamide [Example 71] | 0.903
26 | N#Cc1cc(C(=O)CCC(F)(F)F)c(CN2CCCC2=O)nc1N1CCC(C(=O)NS(=O)(=O)Cc2ccccc2)CC1 [Example 58, N-(benzylsulfonyl)-1-{3-cyano-6-[(2-oxopyrrolidin-1-yl)methyl]-5-(4,4,4-trifluorobutanoyl)pyridin-2-yl}piperidine-4-carboxamide] | 0.084

Same assay, conditions: functional inhibition of 2-Me-S-ADP induced P2Y12 signalling assay; EC80 of agonist; summary table in Pharmacological Data; read-out: IC50

Row | Compound | IC50 [µM]
27 | CCCC(=O)c1cc(C#N)c(N2CCC(C(=O)NS(=O)(=O)Cc3ccc(C)cc3)CC2)nc1CN1CCCCC1=O [Example 4, 1-{5-Butyryl-3-cyano-6-[(2-oxopiperidin-1-yl)methyl]pyridin-2-yl}-N-[(4-methylbenzyl)sulfonyl]piperidine-4-carboxamide] | 0.28
28 | CCC(=O)c1cc(C#N)c(N2CCC(C(=O)NS(=O)(=O)CC3CCCC3)CC2)nc1CN1CCCC1=O [Example 12, 1-{3-Cyano-6-[(2-oxopyrrolidin-1-yl)methyl]-5-propionylpyridin-2-yl}-N-[(cyclopentylmethyl)sulfonyl]piperidine-4-carboxamide] | 0.13
